Laboratory results taken from publication PMC9944328 (Nature Communications, 2023).

Tested on: SSTR2 mutants
Experiment: SSTRs Gi-mediated cAMP inhibition, GloSensor, HEK293, 5 μM forskolin, 15 min room temperature (SSTR2 mutants)
Type: cell-based, human
Protocol: The levels of the intracellular 3′, 5′-cyclic AMP (cAMP) were measured by the GloSensor cAMP assay (Promega) as described in the previous studies[28],[41] which has been widely used. The human full-length SSTRs and mutants were cloned into the pcDNA3.1+ vector with a HA signal sequence followed by a Flag tag at the N-terminus. HEK293 cells (ATCC, CRL-1573) were seeded into 6-well microplates at a density of 1.0 × 10^6 cells/well and cultured for 24 h at 37 °C with 5% CO2. Cells were then co-transfected with SSTR wild-type or mutants and GloSensor plasmids. After 24 h of transfection, the cells were dissociated with TrypLE™ Express Enzyme (1X) (Thermo Fisher Scientific) and collected by centrifugation at 500 × g for 5 min. Then the collected cells were suspended in Hank’s balanced salt solution [HBSS (Thermo Fisher Scientific)] supplemented with […] (YEASEN), and then the suspension cells were seeded into 96-well plates with 90 μl/well. After incubating at room temperature for 40 min, 5 μM forskolin and ligands diluted in HBSS were added to each well and the plates were incubated at room temperature for 15 min. […] were measured using the Synergy H1 microplate reader (BioTek) and the data presented are means of at least three independent experiments.

[1] = Suppl. Table 4, SSTR2 D295(7.36)F, n=3
[2] = Suppl. Table 4, SSTR2 F294(7.35)Y, n=3
[3] = Suppl. Table 4, SSTR2 I195(45.52)M, n=3
[4] = Suppl. Tables 4/5, SSTR2 V103(2.64)N, n=3

SMILES: N#Cc1cccc(-c2ccc3ncc(-c4cc(F)cc(F)c4)c(N4CCC(N)CC4)c3c2)c1O [paltusotine]
- Span (best-fit value) (P220A-2 (run 2)): 119.1
- Top (best-fit value) (P220A-2 (run 2)): 123.6
- Bottom (best-fit value) (P220A-3 (run 3)): 2.569
- LogEC50 (best-fit value) (P220A-3 (run 3)): -8.511
- Span (best-fit value) (P220A-3 (run 3)): 103.4
- Top (best-fit value) (P220A-3 (run 3)): 106
- Fold of WT (Suppl. Table 4, SSTR2 D295(7.36)F): 0.67
- EC50 [1]: 1.39 ± 1.95 nM
- Emax [1]: 75.57±7.43 %WT SSTR2
- Fold of WT (Suppl. Table 4, SSTR2 F294(7.35)Y): 0.48
- EC50 [2]: 0.99 ± 1.3 nM
- Emax [2]: 103.10±3.86 %WT SSTR2
- Fold of WT (Suppl. Table 4, SSTR2 I195(45.52)M): 1.47
- EC50 [3]: 3.05 ± 1.57 nM
- Emax [3]: 89.43±6.05 %WT SSTR2
- Fold of WT (Suppl. Table 4, SSTR2 Y205(5.35)R): 0.16
- EC50 (Suppl. Table 4, SSTR2 Y205(5.35)R, n=3): 0.34 nM
- Fold of WT (Suppl. Tables 4/5, SSTR2 T194(45.51)H): 72.45
- Emax (Suppl. Tables 4/5, SSTR2 T194(45.51)H, n=3): 103.80±12.72 %WT SSTR2
- Fold of WT (Suppl. Tables 4/5, SSTR2 V103(2.64)N): 5.75
- EC50 [4]: 12 ± 1.33 nM
- Emax [4]: 99.52±4.73 %WT SSTR2
- Receptor activation of mutant (T194(45.51)H in SSTR2): significantly reduced receptor activation
- EC50 (T194A, run 1, best-fit): 54.2 nM
- LogEC50 (T194A, run 1, best-fit): -7.266
- EC50 (T194A, run 2, best-fit): 52.7 nM
- LogEC50 (T194A, run 2, best-fit): -7.278
- EC50 (T194A, run 3, best-fit): 125 nM
- LogEC50 (T194A, run 3, best-fit): -6.904
- Bottom (best-fit) (T194H, run 1): 6.584
- EC50 (T194H, run 1): 123 nM
- LogEC50 (T194H, run 1): -6.909
- Span (best-fit) (T194H, run 1): 95.8
- Top (best-fit) (T194H, run 1): 102.4
- Bottom (best-fit) (T194H, run 2): -1.67
- EC50 (T194H, run 2): 151 nM
- LogEC50 (T194H, run 2): -6.822
- Span (best-fit) (T194H, run 2): 105.4
- Top (best-fit) (T194H, run 2): 103.8
- Bottom (best-fit) (T194H, run 3): -5.336
- EC50 (T194H, run 3): 125 nM
- LogEC50 (T194H, run 3): -6.902
- Span (best-fit) (T194H, run 3): 128.8
- Top (best-fit) (T194H, run 3): 123.4
- Impact on Gi signaling (V103(2.64)A): less impact on Gi signaling
- Receptor activation of mutant (V103(2.64)N in SSTR2): reduced receptor activation induced by paltusotine
- Bottom (best-fit) (V103N, run 1): 8.462
- EC50 (V103N, run 1): 11.7 nM
- LogEC50 (V103N, run 1): -7.932
- Span (best-fit) (V103N, run 1): 90.96
- Top (best-fit) (V103N, run 1): 99.42
- Bottom (best-fit) (V103N, run 2): -2.517
- EC50 (V103N, run 2): 36.2 nM
- LogEC50 (V103N, run 2): -7.441
- Span (best-fit) (V103N, run 2): 109.6
- Top (best-fit) (V103N, run 2): 107.1
- Bottom (best-fit) (V103N, run 3): -1.625
- EC50 (V103N, run 3): 11.7 nM
- LogEC50 (V103N, run 3): -7.93
- Span (best-fit) (V103N, run 3): 109.5
- Top (best-fit) (V103N, run 3): 107.8
- Bottom (best-fit value) (W269A-1 (run 1)): -6.112
- LogEC50 (best-fit value) (W269A-1 (run 1)): -9.221
- Span (best-fit value) (W269A-1 (run 1)): 105.6
- Top (best-fit value) (W269A-1 (run 1)): 99.48
- Bottom (best-fit value) (W269A-2 (run 2)): -8.179
- LogEC50 (best-fit value) (W269A-2 (run 2)): -9.298
- Span (best-fit value) (W269A-2 (run 2)): 111.2
- Top (best-fit value) (W269A-2 (run 2)): 103
- Bottom (best-fit value) (W269A-3 (run 3)): -4.689
- LogEC50 (best-fit value) (W269A-3 (run 3)): -9.219
- Span (best-fit value) (W269A-3 (run 3)): 124.8
- Top (best-fit value) (W269A-3 (run 3)): 120.1
- EC50 (Y50A, run 1, best-fit): 3.61 nM
- LogEC50 (Y50A, run 1, best-fit): -8.443
- EC50 (Y50A, run 2, best-fit): 3.74 nM
- LogEC50 (Y50A, run 2, best-fit): -8.427
- EC50 (Y50A, run 3, best-fit): 3.4 nM
- LogEC50 (Y50A, run 3, best-fit): -8.469
- Bottom (best-fit value) (Y205A-1 (run 1)): 11.16
- LogEC50 (best-fit value) (Y205A-1 (run 1)): -9.464
- Span (best-fit value) (Y205A-1 (run 1)): 82.7
- Top (best-fit value) (Y205A-1 (run 1)): 93.87
- Bottom (best-fit value) (Y205A-2 (run 2)): -6.723
- LogEC50 (best-fit value) (Y205A-2 (run 2)): -9.038
- Span (best-fit value) (Y205A-2 (run 2)): 105.5
- Top (best-fit value) (Y205A-2 (run 2)): 98.77
- Bottom (best-fit value) (Y205A-3 (run 3)): 0.8743
- LogEC50 (best-fit value) (Y205A-3 (run 3)): -9.745
- Span (best-fit value) (Y205A-3 (run 3)): 102.6
- Top (best-fit value) (Y205A-3 (run 3)): 103.5
- LogEC50 (Y205R, run 1): -9.464
- Span (best-fit) (Y205R, run 1): 104.7
- Top (best-fit) (Y205R, run 1): 106.2
- LogEC50 (Y205R, run 2): -9.626
- Span (best-fit) (Y205R, run 2): 101.5
- Top (best-fit) (Y205R, run 2): 105.3
- LogEC50 (Y205R, run 3): -8.061
- Span (best-fit) (Y205R, run 3): 97.31
- Top (best-fit) (Y205R, run 3): 99.13
- Bottom (best-fit value), cAMP inhibition (Y302A-1 (run 1)): 5.692
